Laboratory results as given in patent US20240188566A1, “Biocidal Composition and Method” (ARXADA, LLC, priority 2021, published 2024).
Marks after values point to notes of the source that are not given here.

How the values were obtained:
Type in all cases: cell-based
microbial growth = assay: In-can challenge test of dicyandiamide as adjuvant for MIT (Table 3); conditions: for degree of microbial growth (plate ranking) / passing result of challenge test: Dicy 0
From the text: However, using a combination of MIT and dicyandiamide can allow for effective microbial control at MIT concentrations as low as 20 ppm.
(§1) Example data provided in Tables 1, 2 and 3 should be understood as indicating the degree of microbial growth observed for a given data point unless otherwise indicated. In particular, each plate is ranked from 0 through 5c (i.e., one of 0, 1, 2, 3, 4, 5, or 5c) according to the degree of observed microbial growth, where: a “0” ranking indicates no growth; a “1” ranking indicates one (1) through five (5) observed colony forming unit (cfu), i.e., the plate was very lightly contaminated; a “2” ranking indicates six (6) through fifteen (15) cfu, i.e., the plate was lightly contaminated; a “3” ranking indicates sixteen (16) through thirty (30) cfu, i.e., the plate was moderately contaminated; a “4” ranking indicates thirty-one (31) through forty-five (45) cfu, i.e., the plate was heavily contaminated; a “5” ranking indicates greater than (45) cfu, i.e., the plate was severely contaminated; and a “5c” ranking indicates confluent growth, i.e., the plate was very severely contaminated. Thus, for instance, Table 1, Challenge 1 at 24 h for BIT 50 ppm has a value of 5 indicating greater than forty-five (45) cfu were observed. As another example for illustration, Table 1, Challenge 1 at 24 h for dicyandiamide 5,000 ppm+BIT 50 ppm has a value of 1 indicating one (1) through five (5) cfu was observed.

[1] = test system: Pseudomonas aeruginosa, Escherichia coli, Enterobacter cloacae, Acinetobacter calcoaceticus; assay: Repeat in-can challenge test, same conditions (Table 2); conditions: Dicyandiamide 5,000 ppm
Description: (§2) Various formulations were made in accordance with the present disclosure and tested for performance. In one challenge test, the efficacy of dicyandiamide as an adjuvant for BIT was evaluated using modified ASTM D2574-97 “Standard Test Method for Resistance of Emulsion Paints in the Container to Attack by Microorganisms” with higher inoculation volumes and frequency. A standard consortium of four (4) bacterial populations: Pseudomonas aeruginosa, Escherichia coli, Enterobacter cloacae, Acinetobacter calcoaceticus was used to inoculate three (3) different samples at ten percent (10%), five percent (5%), or two and a half percent (2.5%) of the sample size. At twenty-four (24) hours and seventy-two (72) hours after each inoculation, a portion of each sample was streaked on tryptic soy agar. A dilution plate count was performed at the last seventy-two (72) hour time point.
as §1

[2] = test system: Pseudomonas aeruginosa, Escherichia coli, Enterobacter cloacae, Acinetobacter calcoaceticus; assay: In-can challenge test, modified ASTM D2574-97 (Table 1)
Description: as §2, §1

SMILES: Cn1sccc1=O [MIT − 50, 2-methyl-4-isothiazolin-3-one]
- degree of microbial growth (plate ranking) (microbial growth; MIT 15 ppm as active (MIT-50 30 ppm), 1st challenge, 24): 5 (a “5” ranking indicates greater than (45) cfu, i.e., the plate was severely contaminated)
- degree of microbial growth (plate ranking) (microbial growth; MIT 15 ppm as active (MIT-50 30 ppm), 1st challenge, 72): 5 (a “5” ranking indicates greater than (45) cfu, i.e., the plate was severely contaminated)
- degree of microbial growth (plate ranking) (microbial growth; MIT 15 ppm as active (MIT-50 30 ppm), 2nd challenge, 72): 5 (a “5” ranking indicates greater than (45) cfu, i.e., the plate was severely contaminated)
- degree of microbial growth (plate ranking) (microbial growth; MIT 15 ppm as active (MIT-50 30 ppm), 3rd challenge, 24): 5 (a “5” ranking indicates greater than (45) cfu, i.e., the plate was severely contaminated)
- degree of microbial growth (plate ranking) (microbial growth; MIT 15 ppm as active (MIT-50 30 ppm), 3rd challenge, 72): 5 (a “5” ranking indicates greater than (45) cfu, i.e., the plate was severely contaminated)
- degree of microbial growth (plate ranking) (microbial growth; MIT 20 ppm as active (MIT-50 40 ppm), 1st challenge, 24): 5 (a “5” ranking indicates greater than (45) cfu, i.e., the plate was severely contaminated)
- degree of microbial growth (plate ranking) (microbial growth; MIT 20 ppm as active (MIT-50 40 ppm), 1st challenge, 72): 5 (a “5” ranking indicates greater than (45) cfu, i.e., the plate was severely contaminated)
- degree of microbial growth (plate ranking) (microbial growth; MIT 20 ppm as active (MIT-50 40 ppm), 2nd challenge, 72): 5 (a “5” ranking indicates greater than (45) cfu, i.e., the plate was severely contaminated)
- degree of microbial growth (plate ranking) (microbial growth; MIT 20 ppm as active (MIT-50 40 ppm), 3rd challenge, 24): 5 (a “5” ranking indicates greater than (45) cfu, i.e., the plate was severely contaminated)
- degree of microbial growth (plate ranking) (microbial growth; MIT 20 ppm as active (MIT-50 40 ppm), 3rd challenge, 72): 5 (a “5” ranking indicates greater than (45) cfu, i.e., the plate was severely contaminated)
- degree of microbial growth (plate ranking) (microbial growth; MIT 25 ppm as active (MIT-50 50 ppm), 1st challenge, 24): 5 (a “5” ranking indicates greater than (45) cfu, i.e., the plate was severely contaminated)
- degree of microbial growth (plate ranking) (microbial growth; MIT 25 ppm as active (MIT-50 50 ppm), 1st challenge, 72): 2 (a “2” ranking indicates six (6) through fifteen (15) cfu, i.e., the plate was lightly contaminated)
- degree of microbial growth (plate ranking) (microbial growth; MIT 25 ppm as active (MIT-50 50 ppm), 2nd challenge, 72): 5 (a “5” ranking indicates greater than (45) cfu, i.e., the plate was severely contaminated)
- degree of microbial growth (plate ranking) (microbial growth; MIT 25 ppm as active (MIT-50 50 ppm), 3rd challenge, 24): 5 (a “5” ranking indicates greater than (45) cfu, i.e., the plate was severely contaminated)
- degree of microbial growth (plate ranking) (microbial growth; MIT 25 ppm as active (MIT-50 50 ppm), 3rd challenge, 72): 5 (a “5” ranking indicates greater than (45) cfu, i.e., the plate was severely contaminated)
- passing result of challenge test (microbial growth; MIT 30 ppm as active (MIT-50 60 ppm)): MIT − 50 60 ppm (30)*
- degree of microbial growth (plate ranking) (microbial growth; MIT 30 ppm as active (MIT-50 60 ppm), 1st challenge, 24): 5 (a “5” ranking indicates greater than (45) cfu, i.e., the plate was severely contaminated)
- degree of microbial growth (plate ranking) (microbial growth; MIT 30 ppm as active (MIT-50 60 ppm), 1st challenge, 72): 0
- degree of microbial growth (plate ranking) (microbial growth; MIT 30 ppm as active (MIT-50 60 ppm), 2nd challenge, 72): 5 (a “5” ranking indicates greater than (45) cfu, i.e., the plate was severely contaminated)
- degree of microbial growth (plate ranking) (microbial growth; MIT 30 ppm as active (MIT-50 60 ppm), 3rd challenge, 24): 5 (a “5” ranking indicates greater than (45) cfu, i.e., the plate was severely contaminated)
- degree of microbial growth (plate ranking) (microbial growth; MIT 30 ppm as active (MIT-50 60 ppm), 3rd challenge, 72): 0
- passing result of challenge test (microbial growth; MIT 35 ppm as active (MIT-50 70 ppm)): MIT − 50 70 ppm (35)*
- degree of microbial growth (plate ranking) (microbial growth; MIT 35 ppm as active (MIT-50 70 ppm), 1st challenge, 24): 5 (a “5” ranking indicates greater than (45) cfu, i.e., the plate was severely contaminated)
- degree of microbial growth (plate ranking) (microbial growth; MIT 35 ppm as active (MIT-50 70 ppm), 1st challenge, 72): 0
- degree of microbial growth (plate ranking) (microbial growth; MIT 35 ppm as active (MIT-50 70 ppm), 2nd challenge, 72): 0
- degree of microbial growth (plate ranking) (microbial growth; MIT 35 ppm as active (MIT-50 70 ppm), 3rd challenge, 24): 5 (a “5” ranking indicates greater than (45) cfu, i.e., the plate was severely contaminated)
- degree of microbial growth (plate ranking) (microbial growth; MIT 35 ppm as active (MIT-50 70 ppm), 3rd challenge, 72): 0
- MIT concentration giving passing results (microbial growth; MIT alone, no guanidine enhancer): ≥ 30 ppm

SMILES: N#CN=C(N)N [Dicyandiamide, 2-cyanoguanidine]
- degree of microbial growth (plate ranking) ([1]; Challenge 1 (10%), 24 h): 5c
- degree of microbial growth (plate ranking) ([1]; Challenge 1 (10%), 72 h): 5c
- degree of microbial growth (plate ranking) ([1]; Challenge 2 (5%), 72 h): 5c
- degree of microbial growth (plate ranking) ([1]; Challenge 3 (2.5%), 24 h): 5c
- dilution plate count ([1]; Challenge 3 (2.5%), 72 h): 2.4 × 10^7
- degree of microbial growth (plate ranking) ([2]; Dicyandiamide 5,000 ppm, Challenge 1 (10%), 24 h): 5c
- degree of microbial growth (plate ranking) ([2]; Dicyandiamide 5,000 ppm, Challenge 1 (10%), 72 h): 5c
- degree of microbial growth (plate ranking) ([2]; Dicyandiamide 5,000 ppm, Challenge 2 (5%), 72 h): 5c
- degree of microbial growth (plate ranking) ([2]; Dicyandiamide 5,000 ppm, Challenge 3 (2.5%), 24 h): 5c
- dilution plate count ([2]; Dicyandiamide 5,000 ppm, Challenge 3 (2.5%), 72 h): 8.0 × 10^6
- degree of microbial growth (plate ranking) ([2]; Dicyandiamide 10,000 ppm, Challenge 1 (10%), 24 h): 5c
- degree of microbial growth (plate ranking) ([2]; Dicyandiamide 10,000 ppm, Challenge 1 (10%), 72 h): 1 (a “1” ranking indicates one (1) through five (5) observed colony forming unit (cfu), i.e., the plate was very lightly contaminated)
- degree of microbial growth (plate ranking) ([2]; Dicyandiamide 10,000 ppm, Challenge 2 (5%), 72 h): 5 (a “5” ranking indicates greater than (45) cfu, i.e., the plate was severely contaminated)
- degree of microbial growth (plate ranking) ([2]; Dicyandiamide 10,000 ppm, Challenge 3 (2.5%), 24 h): 5 (a “5” ranking indicates greater than (45) cfu, i.e., the plate was severely contaminated)
- dilution plate count ([2]; Dicyandiamide 10,000 ppm, Challenge 3 (2.5%), 72 h): 4.2 × 10^6
- efficacy of dicyandiamide alone compared to the blank ([2]; Table 1, not in combination with BIT): no significant difference compared to the blank
